Assay: Binding affinity towards NMDA receptor ion channel (PCP site) was determined

SMILES	Ki [µM]
OC12C3C4CC5C6C4C1C6C(C53)N2Cc1ccccc1 (stereo unspecified)	> 10
OC12C3C4CC5C6C4C1C6C(C53)N2Cc1cccc(Br)c1 (stereo unspecified)	> 10
Ic1cccc(CNC2C3C4CC5C6C4C2C6C2(OCCO2)C53)c1 (stereo unspecified)	> 10
Ic1ccc(CNC2C3C4CC5C6C4C2C6C2(OCCO2)C53)cc1 (stereo unspecified)	> 10
Brc1cccc(CNC2C3C4CC5C6C4C2C6C2(OCCO2)C53)c1 (stereo unspecified)	> 10
c1ccc(CNC2C3C4CC5C6C4C2C6C2(OCCO2)C53)cc1 (stereo unspecified)	> 10

Reference: ChEMBL document CHEMBL1128991, “Trishomocubanes, a new class of selective and high affinity ligands for the sigma binding site” (Bioorg Med Chem Lett, 1996)
